The text below walks through data of patent publication US4883758A, “Biologically pure culture of the microorganism Streptomycas tropolofaciens used for producing 3,7-dihydroxytropolone and antitumor use” (priority 1989, dated 1989).

One data set concerns Leukemia P388. The class given is in vivo, male BDF1 mice; murine tumor. The following applies: for T/C: MST. On the procedure:
(§1) BU-3129T (3,7-dihydroxytropolone) and its analogs were tested for in vitro cytotoxicity against logarithmically growing murine melanoma tumor cells in liquid culture. B16-F10 cells (4×10^4 cells) in the enriched MEM (Minimum essential medium (Eagle's)) containing test material solution were planted into wells of 96-well microtiter plates and incubated at 37° C., with 5% CO2 under high humidity for 72 hours. After staining with neutral red, cytotoxicity of test material was determined colorimetrically. The inhibitory effects on macromolecule biosynthesis were examined in cultured L1210 leukemia cells. L1210 cells (5×10^5 cells) were exposed to radioactive precursors (^3 H-thymidine, ^14 C-uridine and ^3 H-leucine) for 60 min after the treatment with test material for 15 min. The incorporated radioactivities into acid-insoluble fractions were measured by using a liquid scintillation counter. The in vivo antitumor activity of BU-3129T was determined in male BDF1 mice against leukemia P388 and melanoma B16. Leukemia P388 and melanoma B 16 were inoculated by the intraperitoneal injection at 10^6 cells and 0.5 ml of a 10% tumor brei per mouse, respectively. Test material was administered to mice intraperitoneally once daily through 1 to 9 days after tumor implantation. Tropolone and mitomycin C were comparatively tested in the experiments.

Data set [1] relates to B16-F10 murine melanoma tumor cells. Put plainly: In vitro cytotoxicity against B16-F10 melanoma cells (72 h, neutral red). The class given is cell-based. On the procedure:
as §1

Data set [2] concerns Melanoma B16. Put plainly: In vivo antitumor activity against melanoma B16 in mice, Exp. 1. On the set-up: species or system male BDF1 mice; murine tumor. To be noted: for T/C: MST. Here is the method:
as §1

For data set [3] the following is noted: Kirst, et. al., J. Antibiotics 1982; cited from earlier work.
Data set [4] deals with Melanoma B16. Nature of the data set: In vivo antitumor activity against melanoma B16 in mice, Exp. 2. Further details: species or system male BDF1 mice; murine tumor. The following applies: for Average weight change on day 5: B16 Exp. 2, qd 1→9, ip. Here is the method: as §1
[5] abbreviates: B16 Exp. 1, 0.16 mg/kg/day, qd 1→9, ip.
The mark [6] stands for this setting: B16 Exp. 1, 0.31 mg/kg/day, qd 1→9, ip.
[7] abbreviates: B16 Exp. 1, 0.63 mg/kg/day, qd 1→9, ip.
Setting [8] is: B16 Exp. 1, 1.3 mg/kg/day, qd 1→9, ip.
[9] abbreviates: B16 Exp. 1, 2.5 mg/kg/day, qd 1→9, ip.
Setting [10] is: P388, 0.63 mg/kg/day, qd 1→9, ip.
Setting [11] is: B16 Exp. 1, 0.1 mg/kg/day, qd 1→9, ip.
[12] abbreviates: B16 Exp. 1, 0.3 mg/kg/day, qd 1→9, ip.
Setting [13] is: B16 Exp. 1, 1.0 mg/kg/day, qd 1→9, ip.

Like-named read-outs stand apart in the source and are kept apart here.

Turning to `O=c1c(O)cccc(O)c1O` [BU-3129T, 3,7-dihydroxytropolone], the “Antitumor activity against leukemia P388 (in words)” value with Leukemia P388 (mice bearing murine tumors, ip) was “no activity”. Moreover, the “Potency in the in vitro cytotoxicity test” value in data set [1] is recorded as “most potent”. Further, the “Average weight change on day 5” value is reported as “+0.4 g” in the data set with Melanoma B16 [2] (setting [5]); “+1.2 g” in the data set with Melanoma B16 [2] (setting [6]); “+1.0 g” with Melanoma B16 [2] (setting [7]); “+0.4 g” in the data set on Melanoma B16 [2] (setting [8]); -0.8 g with Melanoma B16 [2] (setting [9]). Moreover, the MST in the data set with Melanoma B16 [2] (setting [5]) was 16.0 days; in the data set on Melanoma B16 [2] (setting [6]) it was 18.0 days; in the data set on Melanoma B16 [2] (setting [7]), 23.0 days; in the data set with Melanoma B16 [2] (setting [8]), 29.0 days; in the data set on Melanoma B16 [2] (setting [9]), 12.0 days. Also, in the data set with Melanoma B16 [2] (B16 Exp. 1, 5.0 mg/kg/day, qd 1→9, ip), the “tox” value is recorded as “tox”. Moreover, the T/C was 100% in the data set with Melanoma B16 [2] (setting [5]); 113% in the data set on Melanoma B16 [2] (setting [6]); 144% in the data set on Melanoma B16 [2] (setting [7]); 181% with Melanoma B16 [2] (setting [8]); 75% with Melanoma B16 [2] (setting [9]). The “Antitumor activity against melanoma B16 (in words)” value with Melanoma B16 [2] (mice bearing murine tumors, ip) is recorded as “significant antitumor activity”. Moreover, in the data set with Melanoma B16 [2] (overall conclusion from the data), the “Inhibitory action against mammalian malignant tumors (in words)” value is reported as “marked inhibitory action”. In addition, the Antimicrobial activity entry in data set [3] is reported as “possesses antimicrobial activity”.
With `CO[C@@]12[C@H](COC(N)=O)C3=C(C(=O)C(C)=C(N)C3=O)N1C[C@@H]1N[C@@H]12` [Mitomycin C, reference compound], the MST in the data set on Leukemia P388 (setting [10]) is given as 21.0 days; with Melanoma B16 [2] (setting [12]) it was 22.0 days; in the data set on Melanoma B16 [2] (setting [13]) it was 27.0 days. The T/C with Leukemia P388 (P388, 0.08 mg/kg/day, qd 1→9, ip) is 114%; with Leukemia P388 (P388, 0.16 mg/kg/day, qd 1→9, ip), 143%; with Leukemia P388 (P388, 0.31 mg/kg/day, qd 1→9, ip), 152%; with Leukemia P388 (setting [10]) it was 200%; with Leukemia P388 (P388, 1.3 mg/kg/day, qd 1→9, ip), 200%; in the data set on Melanoma B16 [2] (setting [11]), 100%. The T/C is recorded as 128% in the data set with Melanoma B16 [2] (setting [12]) and 169% with Melanoma B16 [2] (setting [13]). Further, the “Average weight change on day 5” value in the data set on Melanoma B16 [2] (setting [11]) is “+1.0 g”; in the data set with Melanoma B16 [2] (setting [12]), “+0.4 g”; with Melanoma B16 [2] (setting [13]) it was “+0.6 g”.
As to `O=c1cccccc1O` [Tropolone], the “Average weight change on day 5” value is “+2.3 g” in the data set with Melanoma B16 [4] (1.0 mg/kg/day), “+2.5 g” in the data set with Melanoma B16 [4] (3.0 mg/kg/day), “+3.3 g” with Melanoma B16 [4] (10 mg/kg/day) and “+2.0 g” in the data set on Melanoma B16 [4] (30 mg/kg/day). The “Antitumor activity against melanoma B16 (in words)” value with Melanoma B16 [4] (at the doses tested) was “did not show any activity”.

A word on the T/C: it is the result in the treated group divided by that in the control group, in per cent.
